Assay results reported in ChEMBL document CHEMBL5584334, “Discovery of a Covalent Inhibitor of Pro-Caspase-1 Zymogen Blocking NLRP3 Inflammasome Activation and Pyroptosis” (J Med Chem, 2024).
Activity calls are given as the source filed them. The rule behind the calls is not given here.

Experiments:
J774.A1 [1] = test: Cytotoxicity against mouse J774.A1 cells at 2 uM incubated for 1 to 12 hrs by CCK-8 method; assay type: toxicity, cell-based; conditions: j774.a1, 2 µM, time 1-12 hrs
[2] = target: NACHT, LRR and PYD domains-containing protein 3 (Mus musculus) (UniProt Q8R4B8); test: Inhibition of NLRP3 inflammasome activation in LPS/ATP stimulated mouse J774.A1 cells assessed as reduction in IL-1beta production incubated for 30 mins by ELISA; assay type: cell-based
THP-1 [3] = test: Effect on pro-1L-1beta protein expression in LPS/nigericin stimulated human THP-1 cells supernatant at 0.5 to 2 uM by Western blotting analysis; assay type: functional, cell-based; conditions: dose 0.5-2 µM
THP-1 [4] = test: Inhibition of p20 fragment of caspase 1 protein expression in LPS/nigericin stimulated human THP-1 cells supernatant at 0.5 to 2 uM by Western blotting analysis; assay type: functional, cell-based; conditions: dose 0.5-2 µM
THP-1 [5] = test: Effect on pro-1L-1beta protein expression in LPS/MSU stimulated human THP-1 cells supernatant by Western blotting analysis; assay type: functional, cell-based
Caspase-7 (Mus musculus) = target: T1, Caspase-7 (Mus musculus) (UniProt P97864); test: Inhibition of cisplatin induced caspase-7 activation in mouse J774.A1 cells at 2 uM preincubated for 30 mins followed by cisplatin addition and incubated overnight; assay type: cell-based
T1 sequence (whole entry): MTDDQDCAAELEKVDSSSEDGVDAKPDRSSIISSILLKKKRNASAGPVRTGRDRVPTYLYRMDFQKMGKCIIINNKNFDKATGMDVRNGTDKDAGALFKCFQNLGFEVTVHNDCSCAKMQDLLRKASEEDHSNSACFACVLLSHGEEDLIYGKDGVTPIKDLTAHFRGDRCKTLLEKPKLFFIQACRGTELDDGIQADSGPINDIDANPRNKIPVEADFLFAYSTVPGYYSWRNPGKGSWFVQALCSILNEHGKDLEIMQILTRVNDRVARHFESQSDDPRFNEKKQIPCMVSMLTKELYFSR

THP-1 [6] = test: Effect on pro-caspase-4 expression in human THP-1 cells at 2 uM pretreated with pam3CSK4 for 3 hrs followed by compound addition for 30 mins prior to cytosolic LPS stimulation for 16 hrs by ELISA; assay type: functional, cell-based; conditions: time 16.5 hrs
[7] = target: NACHT, LRR and PYD domains-containing protein 3 (Mus musculus) (UniProt Q8R4B8); test: Inhibition of NLRP3 inflammasome activation in mouse J774.A1 cells assessed as reduction in TNF-alpha release at 0.5 to 2 uM preincubated for 30 mins followed by LPS stimulation for 6 hrs; assay type: cell-based; conditions: dose 0.5-2 µM, time 6.5 hrs
J774.A1 [8] = test: Inhibition of ASC colocalization in LPS/nigericin stimulated mouse J774.A1 cells; assay type: functional, cell-based
J774.A1 [9] = test: Inhibition of ROS production in LPS/nigericin stimulated mouse J774.A1 cells; assay type: functional, cell-based
[10] = system: Caspase-1 (Homo sapiens), P29466 [C169A]; test: Binding affinity to recombinant caspase-1 C169A mutant (unknown origin) at 2 uM by SDS-PAGE analysis
[11] = system: Caspase-1 (Homo sapiens), P29466 [C244A]; test: Binding affinity to recombinant caspase-1 C244A mutant (unknown origin) at 2 uM by SDS-PAGE analysis
[12] = system: Caspase-1 (Homo sapiens), P29466 [C285A]; test: Binding affinity to recombinant caspase-1 C285A mutant (unknown origin) at 2 uM by SDS-PAGE analysis
[13] = target: NACHT, LRR and PYD domains-containing protein 3 (Mus musculus) (UniProt Q8R4B8); test: Inhibition of NLRP3 inflammasome activation in LPS primed Casp1 knockout mouse BMDM cells transfected with caspase-1 C397A mutant assessed as reduction in IL-1beta release at 2 uM preincubated for 30 mins followed by nigericin stimulation; assay type: cell-based
[14] = target: NACHT, LRR and PYD domains-containing protein 3 (Mus musculus) (UniProt Q8R4B8); test: Inhibition of NLRP3 inflammasome activation in LPS primed Casp1 knockout mouse BMDM cells transfected with caspase-1 C285A/C397A double mutant assessed as reduction in IL-1beta release at 2 uM preincubated for 30 mins followed by nigericin stimulation; assay type: cell-based
[15] = target: NACHT, LRR and PYD domains-containing protein 3 (Mus musculus) (UniProt Q8R4B8); test: Inhibition of NLRP3 inflammasome activation in LPS primed Casp1 knockout mouse BMDM cells transfected with caspase-1 C284A mutant assessed as reduction in IL-1beta release at 2 uM preincubated for 30 mins followed by nigericin stimulation; assay type: cell-based
[16] = target: NACHT, LRR and PYD domains-containing protein 3 (Mus musculus) (UniProt Q8R4B8); test: Inhibition of NLRP3 inflammasome activation in LPS primed Casp1 knockout mouse BMDM cells transfected with caspase-1 C395A mutant assessed as reduction in IL-1beta release at 2 uM preincubated for 30 mins followed by nigericin stimulation; assay type: cell-based
J774.A1 [17] = test: Inhibition of pyroptosis in mouse J774.A1 cells assessed as reduction in cleaved GSDMD expression at 0.5 to 2 uM pretreated with LPS for 3 hrs followed by compound addition in presence of nigericin by Western blotting analysis; assay type: functional, cell-based; conditions: dose 0.5-2 µM
J774.A1 [18] = test: Inhibition of pyroptosis in mouse J774.A1 cells assessed as reduction in caspase-1 to GSDMD interaction at 1 uM pretreated with LPS for 3 hrs followed by compound addition in presence of nigericin by immunoprecipitation analysis; assay type: functional, cell-based
HEK293T [19] = test: Inhibition of recombinant wild type caspae-1 (unknown origin) to GSDMD (unknown origin) interaction expressed in HEK293T cells; assay type: cell-based; conditions: Homo sapiens
HEK293T [20] = test: Inhibition of recombinant caspae-1 C285A mutant (unknown origin) to GSDMD (unknown origin) interaction expressed in HEK293T cells; assay type: cell-based; conditions: Homo sapiens
[21] = Acute toxicity in Kunming mouse assessed as change in LDH level at 100 mg/kg, ip administered for 14 days; assay type: organism-based; conditions: in vivo, 336 h, time 14 day
[22] = Tmax in rat at 10 mg/kg, iv; assay type: ADME, organism-based; conditions: in vivo
Mus musculus [23] = test: Anti-inflammatory activity in MSU/C18:0 free fatty acid induced Kunming mouse model of gouty arthritis assessed as reduction NLRP3 expression at 5 to 20 mg/kg, ip preadministered with compound for 30 mins followed by MSU/C18:0 free fatty acid injection and measured after 24 hrs by Western blotting analysis; assay type: functional, organism-based; conditions: dose 5-20 mg/kg, time 24.5 hrs
Mus musculus [24] = test: Anti-inflammatory activity in MSU/C18:0 free fatty acid induced Kunming mouse model of gouty arthritis assessed as effect on ASC expression at 5 to 20 mg/kg, ip preadministered with compound for 30 mins followed by MSU/C18:0 free fatty acid injection and measured after 24 hrs by Western blotting analysis; assay type: functional, organism-based; conditions: dose 5-20 mg/kg, time 24.5 hrs
Mus musculus [25] = test: Anti-inflammatory activity in MSU/C18:0 free fatty acid induced ip dosed Casp1 knockout Kunming mouse model of gouty arthritis assessed as reduction in IL-beta production preadministered with compound for 30 mins followed by MSU/C18:0 free fatty acid injection and measured after 24 hrs by ELISA; assay type: functional, organism-based; conditions: time 24.5 hrs
Mus musculus [26] = test: Anti-inflammatory activity in LPS/MSU-induced Casp1 knockout C57BL/6 mouse model of acute peritonitis assessed as reduction in IL-1beta expression at 20 mg/kg, ip preadministered intraperitoneally with compound for 30 mins followed by MSU injection and measured after 6 hrs by ELISA; assay type: functional, organism-based

Chain of NACHT, LRR and PYD domains-containing protein 3 (Mus musculus) (Q8R4B8 whole entry, the tested form may be a part): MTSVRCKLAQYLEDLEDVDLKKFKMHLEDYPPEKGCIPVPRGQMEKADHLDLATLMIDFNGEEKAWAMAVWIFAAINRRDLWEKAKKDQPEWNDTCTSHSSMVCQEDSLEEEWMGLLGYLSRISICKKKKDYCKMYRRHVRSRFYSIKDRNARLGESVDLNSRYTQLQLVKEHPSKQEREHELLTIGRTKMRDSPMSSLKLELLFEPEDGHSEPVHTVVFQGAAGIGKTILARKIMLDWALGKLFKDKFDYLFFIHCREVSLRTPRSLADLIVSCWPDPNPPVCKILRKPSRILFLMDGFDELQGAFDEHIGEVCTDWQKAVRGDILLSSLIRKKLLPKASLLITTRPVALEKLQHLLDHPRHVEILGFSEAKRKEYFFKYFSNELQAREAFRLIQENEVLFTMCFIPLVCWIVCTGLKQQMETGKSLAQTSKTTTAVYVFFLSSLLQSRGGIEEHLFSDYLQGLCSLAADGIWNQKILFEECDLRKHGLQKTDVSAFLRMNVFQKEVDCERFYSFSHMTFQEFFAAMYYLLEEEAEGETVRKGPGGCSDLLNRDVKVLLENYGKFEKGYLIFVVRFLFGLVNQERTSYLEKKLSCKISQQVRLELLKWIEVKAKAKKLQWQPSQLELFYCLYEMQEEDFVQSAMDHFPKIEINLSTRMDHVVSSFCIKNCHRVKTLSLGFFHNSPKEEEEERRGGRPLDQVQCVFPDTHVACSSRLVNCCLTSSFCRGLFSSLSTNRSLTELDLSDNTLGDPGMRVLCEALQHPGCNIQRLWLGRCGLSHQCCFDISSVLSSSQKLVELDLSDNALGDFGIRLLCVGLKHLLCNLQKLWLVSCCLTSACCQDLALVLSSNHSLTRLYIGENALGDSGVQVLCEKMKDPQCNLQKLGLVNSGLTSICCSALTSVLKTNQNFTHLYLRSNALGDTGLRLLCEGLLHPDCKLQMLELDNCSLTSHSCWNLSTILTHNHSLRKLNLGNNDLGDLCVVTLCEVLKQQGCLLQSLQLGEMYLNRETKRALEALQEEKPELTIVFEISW
Chain of Caspase-1 (Homo sapiens), P29466 [C169A] (P29466 whole entry C169A): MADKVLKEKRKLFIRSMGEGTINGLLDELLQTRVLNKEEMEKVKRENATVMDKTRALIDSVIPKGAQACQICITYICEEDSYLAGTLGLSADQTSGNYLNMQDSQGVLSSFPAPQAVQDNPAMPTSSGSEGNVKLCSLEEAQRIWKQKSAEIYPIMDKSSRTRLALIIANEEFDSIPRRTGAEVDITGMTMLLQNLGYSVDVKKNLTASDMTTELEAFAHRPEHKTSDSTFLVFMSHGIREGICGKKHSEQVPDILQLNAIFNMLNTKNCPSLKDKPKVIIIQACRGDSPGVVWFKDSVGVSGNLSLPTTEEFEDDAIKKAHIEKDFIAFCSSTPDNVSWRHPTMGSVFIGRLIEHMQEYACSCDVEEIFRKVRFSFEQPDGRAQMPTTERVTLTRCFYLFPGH
Chain of Caspase-1 (Homo sapiens), P29466 [C244A] (P29466 whole entry C244A): as the sequence (P29466 whole entry C169A) above, with A169C, C244A counted along it
Chain of Caspase-1 (Homo sapiens), P29466 [C285A] (P29466 whole entry C285A, the tested form may be a part): as the sequence (P29466 whole entry C169A) above, with A169C, C285A counted along it

**Q.** With `COc1ccc2c(c1)[C@]1(C=C[C@H](N=C=S)C[C@H]1C(=O)OC(C)(C)C)C(=O)N2C(=O)OCc1ccccc1` as the compound, how does the Activity (J774.A1 [1]) read?
**A.** Non-Toxic

**Q.** And the inhibition [2]?
**A.** Active

**Q.** And the Activity (THP-1 [3])?
**A.** inactive

**Q.** What about the inhibition (THP-1 [4]) of the same compound?
**A.** Active

**Q.** And the Activity (THP-1 [5])?
**A.** inactive

**Q.** And the inhibition (Caspase-7 (Mus musculus))?
**A.** inactive

**Q.** And the Activity (THP-1 [6])?
**A.** inactive

**Q.** And the inhibition [7]?
**A.** Active

**Q.** And the inhibition (J774.A1 [8])?
**A.** Active

**Q.** And the inhibition (J774.A1 [9])?
**A.** inactive

**Q.** What about the Activity [10] of the same compound?
**A.** Active

**Q.** What about the Activity [11] of the same compound?
**A.** Active

**Q.** What about the Activity [12] of the same compound?
**A.** inactive

**Q.** And the inhibition [13]?
**A.** inactive

**Q.** What about the inhibition [14] of the same compound?
**A.** inactive

**Q.** What about the inhibition [15] of the same compound?
**A.** inactive

**Q.** And the inhibition [16]?
**A.** inactive

**Q.** What about the inhibition (J774.A1 [17]) of the same compound?
**A.** Active

**Q.** What about the inhibition (J774.A1 [18]) of the same compound?
**A.** Active

**Q.** And the inhibition (HEK293T [19])?
**A.** Active

**Q.** What about the inhibition (HEK293T [20]) of the same compound?
**A.** inactive

**Q.** And the Activity [21]?
**A.** Non-Toxic

**Q.** What about the Tmax [22] of the same compound?
**A.** 4.98 min

**Q.** And the Activity (Mus musculus [23])?
**A.** Active

**Q.** What about the Activity (Mus musculus [24]) of the same compound?
**A.** inactive

**Q.** And the Activity (Mus musculus [25])?
**A.** inactive

**Q.** What about the Activity (Mus musculus [26]) of the same compound?
**A.** inactive
